Tests used:
[1] = target: T1, Pyruvate dehydrogenase E1 component subunit alpha, somatic form, mitochondrial (Sus scrofa, UniProt P29804); experiment: Inhibition of porcine PDHc E1-subunit incubated for 30 mins followed by pyruvate addition in presence of thiamine pyrophosphate by microplate reader analysis
T1 sequence (P29804 whole entry): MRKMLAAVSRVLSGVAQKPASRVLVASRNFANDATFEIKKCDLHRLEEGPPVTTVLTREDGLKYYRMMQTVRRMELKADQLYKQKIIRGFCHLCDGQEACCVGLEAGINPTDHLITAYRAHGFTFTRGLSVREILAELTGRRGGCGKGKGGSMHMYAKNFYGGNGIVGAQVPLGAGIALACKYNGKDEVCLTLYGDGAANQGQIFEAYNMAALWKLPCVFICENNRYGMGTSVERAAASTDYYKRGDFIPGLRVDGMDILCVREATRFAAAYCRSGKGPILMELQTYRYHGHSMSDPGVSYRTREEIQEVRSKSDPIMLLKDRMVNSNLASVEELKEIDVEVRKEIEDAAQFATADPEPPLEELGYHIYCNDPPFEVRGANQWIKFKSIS

[2] = target: T2, Pyruvate dehydrogenase E1 component subunit alpha, somatic form, mitochondrial (Sus scrofa) (UniProt P29804); experiment: Binding affinity to porcine PDHc E1-subunit assessed as KM(TPP)/Ki ratio incubated for 30 mins followed by pyruvate addition by microplate reader analysis
T2 sequence (whole entry): T1 sequence (P29804 whole entry)

[3] = target: T1, Pyruvate dehydrogenase E1 component subunit alpha, somatic form, mitochondrial; experiment: Binding affinity to porcine PDHc E1-subunit assessed as inhibition constant incubated for 30 mins followed by pyruvate addition by microplate reader analysis
[4] = Stability of the compound assessed as compound remaining in 0.1M aqueous phosphate buffer at pH 7.4 incubated for 2 hrs by NMR analysis; format: physicochemical; conditions: read-out: Stability
[5] = Thermal stability of the compound assessed as compound remaining in DMSO at 70 degreeC incubated for 2 hrs by NMR analysis; format: physicochemical; conditions: read-out: Stability
[6] = target: T2, Pyruvate dehydrogenase E1 component subunit alpha, somatic form, mitochondrial (Sus scrofa); experiment: Inhibition of porcine PDHc E1-subunit at 10 uM at 1:5 compound: thiamine pyrophosphate ratio incubated for 30 mins followed by pyruvate addition by microplate reader analysis relative to control
[7] = Metabolic stability of the compound assessed as porcine liver esterase mediated hydrolysis at pH 7.4 measured after 4 hrs by UPLC analysis; format: ADME, Sus scrofa; conditions: pig, isolated protein, pH 7.4, 4 h
[8] = Stability of the compound assessed as compound remaining in 1 M aqueous NaOH at 37 degreeC incubated for 2 hrs by NMR analysis; format: physicochemical; conditions: read-out: Stability
[9] = target: T2, Pyruvate dehydrogenase E1 component subunit alpha, somatic form, mitochondrial (Sus scrofa); experiment: Inhibition of porcine PDHc E1-subunit at 10 uM at 1:1 compound: thiamine pyrophosphate ratio incubated for 30 mins followed by pyruvate addition by microplate reader analysis relative to control
[10] = Stability of the compound assessed as porcine liver esterase mediated compound degradation by measuring compound recovery at 0.05 mmol measured after 30 mins by NMR analysis; format: ADME, Sus scrofa; conditions: pig, read-out: Stability
[11] = Stability of the compound assessed as compound remaining in 0.1 M aqueous K2CO3 incubated for 1 hr by NMR analysis; format: physicochemical; conditions: read-out: Stability
[12] = Stability of the compound assessed as compound remaining in 1 M aqueous HCl at 37 degreeC incubated for 2 hrs by NMR analysis; format: physicochemical; conditions: read-out: Stability
[13] = Permeability of the compound assessed as absorbed fraction by PAMPA assay; format: ADME
[14] = Drug metabolism in porcine liver esterase assessed as 2-(4-((4-amino-2-methylpyrimidin-5-yl)methyl)-3-methylthiophen-2-yl)ethan-1-ol formation at pH 7.4 measured after 4 hrs; format: ADME, Sus scrofa; conditions: pig, pH 7.4, 4 h

| IC50 [1] | Ratio [2] | Ki [3] | inhibition [6] | inhibition [9] | permeability [13] | Structure (SMILES) | also measured |
| --- | --- | --- | --- | --- | --- | --- | --- |
| 3.3 µM |  |  |  |  |  | Cc1ncc(Cc2coc(CCOC(=O)c3ccc(Cl)cc3)c2)c(N)n1 |  |
| 3 µM |  |  |  |  |  | Cc1ncc(Cn2cc(CCOC(=O)c3cccnc3)nn2)c(N)n1 |  |
| 2.5 µM |  |  |  |  |  | Cc1ncc(Cc2coc(CCNC(=O)c3cccnc3)c2)c(N)n1 |  |
| 9.2 µM |  |  |  |  |  | Cc1ncc(Cc2coc(CCNC(=O)c3ccc(Cl)cc3)c2)c(N)n1 |  |
| 3.5 µM | 2.86 | 0.0175 µM |  |  |  | COc1ccc(C(=O)OCC[C@H]2SCN(Cc3cnc(C)nc3N)[C@H]2C)cc1 (racemic) |  |
| 3.6 µM | 2.78 | 0.018 µM |  |  |  | Cc1ncc(Cc2csc(CCO)c2C)c(N)n1 [3-DEAZATHIAMINE] |  |
| 0.99 µM | 10.1 | 0.00495 µM | 65% | > 90% | 44% | COc1ccc(C2(NCCc3scc(Cc4cnc(C)nc4N)c3C)COC2)cc1 | remaining at 2 h [4]: > 90%; remaining at 2 h [5]: > 90%; Stability [7]: Stable; remaining at 2 h [8]: > 90%; remaining at 0.5 h [10]: > 90%; remaining at 1 h [11]: > 90%; remaining at 2 h [12]: 22% |
| 5.1 µM | 1.96 | 0.0255 µM | 28% | 65% | 35% | COc1ccc(C(=O)NCCc2scc(Cc3cnc(C)nc3N)c2C)cc1 | Stability [7]: Stable |
| 6.3 µM | 1.59 | 0.0315 µM | 25% | 63% | 31% | COc1ccc(C(=O)OCCc2cn(Cc3cnc(C)nc3N)nn2)cc1 |  |
| 35 µM | 0.29 | 0.175 µM | < 10% | 22% | 26% | COc1ccc(C(=O)NCCc2cn(Cc3cnc(C)nc3N)nn2)cc1 |  |
| 30 µM |  | 0.15 µM |  |  |  | Cc1ncc(Cn2cc(CCO)nn2)c(N)n1 |  |
| 66 µM |  |  |  |  |  | Cc1ncc(Cn2cc(CCNC(=O)c3ccc(Cl)cc3)nn2)c(N)n1 |  |
| 21 µM | 0.48 | 0.105 µM |  |  |  | Cc1ncc(CN2CS[C@H](CCO)[C@@H]2C)c(N)n1 (racemic) |  |
| 0.89 µM | 11.2 | 0.00445 µM | 72% | > 90% | 39% | COc1ccc(C(=O)OCCc2scc(Cc3cnc(C)nc3N)c2C)cc1 | remaining at 2 h [4]: > 90%; remaining at 2 h [5]: > 90%; Stability [7]: Unstable; remaining at 2 h [8]: 15%; remaining at 0.5 h [10]: < 10%; Drug metabolism [14]: Metabolite_Detected; remaining at 1 h [11]: 31%; remaining at 2 h [12]: 43% |
| 7.8 µM | 1.28 | 0.039 µM | 20% | 58% | 35% | COc1ccc(C2(NCCc3cn(Cc4cnc(C)nc4N)nn3)COC2)cc1 |  |

Source: ChEMBL document CHEMBL5356955, “Thiamine analogues featuring amino-oxetanes as potent and selective inhibitors of pyruvate dehydrogenase” (Bioorg Med Chem Lett, 2024)
